Key:
Assay type in all cases: binding
[1] = molecular target: T1, MTNR1B (Homo sapiens, UniProt P49286); experiment: NanoBRET screen HiBiT-MTNR1B in HEK293; details: MTNR1B
T1 construct: purchased Promega (in-house HiBiT-GPCR construct library, NanoBRET)
T1 sequence (P49286 1-362): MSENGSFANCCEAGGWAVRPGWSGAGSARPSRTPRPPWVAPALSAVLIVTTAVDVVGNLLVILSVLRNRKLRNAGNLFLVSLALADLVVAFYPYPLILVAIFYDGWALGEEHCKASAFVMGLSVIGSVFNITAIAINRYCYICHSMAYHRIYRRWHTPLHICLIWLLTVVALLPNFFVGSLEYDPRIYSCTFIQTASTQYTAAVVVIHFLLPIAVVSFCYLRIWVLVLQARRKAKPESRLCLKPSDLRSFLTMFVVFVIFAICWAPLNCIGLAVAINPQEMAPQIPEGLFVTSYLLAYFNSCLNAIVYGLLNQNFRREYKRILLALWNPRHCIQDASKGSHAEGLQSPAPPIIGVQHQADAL
Method: (§1) Each tracer candidate was screened across the entire library of HiBiT-GPCR constructs using NanoBRET as the detection modality. As depicted in Figure 4A, the specificity of interactions was evaluated through decrease in BRET due to competitive displacement of a bound tracer by excess parental compound. Each tracer was analyzed for binding to each HiBiT-GPCR fusion in the absence and in the presence of competing parental compound. Briefly, HEK293 cells were transfected with HiBiT-GPCR constructs diluted into promoterless DNA to reduce expression and maximize translocation to the cell surface. Each tracer candidate was then screened at concentrations of 1 μM and 0.1 μM across cells expressing these fusions. Cells were treated for 1.5 h with tracer either alone or in the presence of 20 μM competing parental compound (i.e., control). BRET was measured upon addition of purified LgBiT and subsequent complementation with HiBiT genetically fused to a GPCR. The specificity of interactions was assessed through a decrease in BRET signal due to competitive displacement of the bound tracer. To further gauge the robustness of these interactions, the fold response over the control (i.e., BRETtracer/BRETcontrol) was calculated. We chose a 1.5-fold response, which translates to ≥7-fold signal over noise as the minimal threshold required to score an interaction as positive. […]. Below we highlight the screening results obtained for our exemplary fluorescent tracers based on Clozapine, Amitriptyline and AZD1283.
(§2) HiBiT-GPCR DNA constructs were diluted in 10 mM Tris pH 8 to a final concentration of 0.01 μg/μL, arrayed in 96-well plates and stored at −20 °C. For transfection, HEK293 cells were suspended in Opti-MEM (without phenol red) supplemented with 2% fetal bovine serum (Seradigm) and 100 units/mL penicillin–streptomycin (Gibco) at a final concentration of 220,000 cells/mL and dispensed into white 96-well plates at 90 μL/well. Subsequent transfections and screens were carried using an Agilent Bravo Automated Liquid Handling Platform. First, the 96-well HiBiT DNA arrays were diluted 25-fold in Opti-MEM (without serum or phenol red) to a final concentration of 0.0004 μg/μL and 20 μL of the diluted DNAs were transferred into new 96-well plates. Next, promoterless carrier DNA (1 μg/μL) was diluted 25-fold (0.04 μg/μL) and then dispensed into the diluted arrays at 20 μL/well. Following brief mixing, Viafect transfection reagent (Promega) diluted 16-fold into Opti-MEM was dispensed into the plates at 40 μL/well. After mixing by pipetting, plates were incubated for 10 min on the pipetting station deck. The DNA-transfection reagent complexes were then added to plates containing cells. To facilitate the screen, 10 μL of DNA-transfection reagent complexes were added in duplicates to the top 4 and bottom 4 rows, resulting in two identical 48-well arrays per plate. Plates with transfected cells were incubated for 18–20 h at 37 °C/5% CO2. A screen of each tracer across the entire library using two different concentrations requires duplicate plates of transfected cells. Depending on the number of tracers being screened, transfections can be scaled up using the same ratios. The next day, for each tracer, four 20× screening solutions in tracer dilution buffer (Promega) were prepared: two duplicates at final concentration of 20 μM and two duplicates at a final concentration of 2 μM. A competing unmodified compound was added to one of each duplicate at a final concentration of 400 μM. The four resulting solutions were diluted 4-fold in Opti-MEM without serum or phenol red to generate 5× solutions (5 µM and 0.5 µM tracer +/− 100 μM competing compound). To screen the library, a BioTek MultiFlo FX liquid dispenser was used to dispense 22.5 µL of tracer solution to the top 4 rows and 22.5 µL tracer + competing compound solution to the 4 bottom rows. Plates were briefly mixed on an orbital shaker and incubated for 1.5 h at room temperature. […]

[2] = molecular target: T2, SMO (Homo sapiens, UniProt Q99835); experiment: NanoBRET screen HiBiT-SMO in HEK293
T2 construct: purchased Promega (in-house HiBiT-GPCR construct library, NanoBRET)
T2 sequence (Q99835 28-787): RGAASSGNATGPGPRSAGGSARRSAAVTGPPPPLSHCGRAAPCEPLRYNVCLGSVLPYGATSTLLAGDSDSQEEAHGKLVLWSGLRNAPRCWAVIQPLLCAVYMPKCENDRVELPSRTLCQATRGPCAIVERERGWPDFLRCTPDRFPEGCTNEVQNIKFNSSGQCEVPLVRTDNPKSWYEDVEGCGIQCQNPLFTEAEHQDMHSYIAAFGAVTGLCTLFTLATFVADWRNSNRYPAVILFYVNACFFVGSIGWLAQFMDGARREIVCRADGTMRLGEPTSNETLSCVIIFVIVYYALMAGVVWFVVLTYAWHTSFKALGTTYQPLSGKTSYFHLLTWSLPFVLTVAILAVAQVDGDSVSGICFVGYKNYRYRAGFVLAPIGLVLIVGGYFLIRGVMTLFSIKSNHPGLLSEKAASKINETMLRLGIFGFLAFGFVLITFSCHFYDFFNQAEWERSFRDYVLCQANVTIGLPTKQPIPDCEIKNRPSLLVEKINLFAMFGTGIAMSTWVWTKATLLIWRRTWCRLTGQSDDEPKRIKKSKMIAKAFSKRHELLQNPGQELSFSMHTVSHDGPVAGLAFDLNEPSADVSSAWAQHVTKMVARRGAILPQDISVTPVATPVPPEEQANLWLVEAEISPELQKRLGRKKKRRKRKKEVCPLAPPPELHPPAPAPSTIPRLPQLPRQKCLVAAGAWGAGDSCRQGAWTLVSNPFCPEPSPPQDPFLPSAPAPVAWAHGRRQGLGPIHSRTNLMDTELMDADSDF
Method: as §1, §2

[3] = molecular target: T3, C5AR1 (Homo sapiens, UniProt P21730); experiment: NanoBRET screen HiBiT-C5AR1 in HEK293
T3 construct: purchased Promega (in-house HiBiT-GPCR construct library, NanoBRET)
T3 sequence (P21730 1-350): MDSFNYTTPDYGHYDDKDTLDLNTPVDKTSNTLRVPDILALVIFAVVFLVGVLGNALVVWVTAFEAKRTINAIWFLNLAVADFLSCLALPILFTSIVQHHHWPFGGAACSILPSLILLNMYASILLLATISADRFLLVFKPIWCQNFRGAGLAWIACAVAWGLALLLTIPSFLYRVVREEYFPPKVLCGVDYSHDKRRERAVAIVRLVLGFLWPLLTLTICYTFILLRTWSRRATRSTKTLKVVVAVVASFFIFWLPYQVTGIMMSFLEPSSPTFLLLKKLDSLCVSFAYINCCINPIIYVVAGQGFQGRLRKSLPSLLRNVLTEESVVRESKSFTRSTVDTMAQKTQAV
Method: as §1, §2

[4] = molecular target: T4, FZD4 (Homo sapiens, UniProt Q9ULV1); experiment: NanoBRET screen HiBiT-FZD4 in HEK293
T4 construct: purchased Promega (in-house HiBiT-GPCR construct library, NanoBRET)
T4 sequence (Q9ULV1 37-537): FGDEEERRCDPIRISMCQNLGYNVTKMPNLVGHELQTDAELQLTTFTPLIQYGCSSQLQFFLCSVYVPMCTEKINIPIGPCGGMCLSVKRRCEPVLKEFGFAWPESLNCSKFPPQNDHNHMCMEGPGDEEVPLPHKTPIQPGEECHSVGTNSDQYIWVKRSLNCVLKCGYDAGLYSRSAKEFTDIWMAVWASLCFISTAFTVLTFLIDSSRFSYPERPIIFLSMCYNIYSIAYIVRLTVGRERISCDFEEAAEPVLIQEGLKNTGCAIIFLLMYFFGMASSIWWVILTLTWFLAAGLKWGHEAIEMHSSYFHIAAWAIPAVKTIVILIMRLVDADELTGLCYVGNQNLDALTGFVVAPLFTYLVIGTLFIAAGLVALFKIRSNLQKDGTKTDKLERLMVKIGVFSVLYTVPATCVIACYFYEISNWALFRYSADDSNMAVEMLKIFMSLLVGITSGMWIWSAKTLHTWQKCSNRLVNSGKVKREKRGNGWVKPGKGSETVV
Method: as §1, §2

[5] = tracer at 0.1μM, listed as amitriptyline-b-2-NB590

SMILES	NanoBRET Fold Response ([1]; tracer 0.1μM)	NanoBRET Fold Response ([1]; tracer 1μM)	NanoBRET Fold Response ([2]; SMO, tracer 0.1μM)	NanoBRET Fold Response ([2]; SMO, tracer 1μM)	NanoBRET Fold Response ([3]; C5AR1, tracer 0.1μM)	NanoBRET Fold Response ([3]; C5AR1, tracer 1μM)	NanoBRET Fold Response ([4]; FZD4, tracer 0.1μM)	NanoBRET Fold Response ([4]; FZD4, tracer 1μM)	further results
Cc1nc2n(c(=O)c1CCN1CCC(c3noc4cc(F)ccc34)CC1)CCCC2OC(=O)NCCOCCOCCOCCOCCNC(=O)CCc1ccc2n1[B-](F)(F)[N+]1=C(c3ccc[nH]3)C=CC1=C2 (stereo not shown) [Risperidone-2-NB590]	0.99	0.92	0.86	1.00	0.95	0.99	1.14	1.01	–
CCOC(=O)c1cc(C#N)c(N2CCC(C(=O)NS(=O)(=O)Cc3ccccc3/C=C/C(=O)NCCNC(=O)CCc3ccc4n3[B-](F)(F)[N+]3=C(c5ccc[nH]5)C=CC3=C4)CC2)nc1C [AZD1283-1-NB590]	–	–	–	–	–	–	–	–	NanoBRET Fold Response ([1]; 0.1μM): 0.97; NanoBRET Fold Response ([1]; 1μM): 0.53; NanoBRET Fold Response ([2]; SMO, 0.1μM): 1.05; NanoBRET Fold Response ([2]; SMO, 1μM): 1.13; NanoBRET Fold Response ([3]; C5AR1, 0.1μM): 1.07; NanoBRET Fold Response ([3]; C5AR1, 1μM): 1.07; NanoBRET Fold Response ([4]; FZD4, 0.1μM): 1.03; NanoBRET Fold Response ([4]; FZD4, 1μM): 1.03
Cc1cc2c(s1)Nc1ccccc1N=C2N1CCN(CCCNC(=O)CCOCCOCCOCCOCCNC(=O)CCc2ccc3n2[B-](F)(F)[N+]2=C(c4ccc[nH]4)C=CC2=C3)CC1 [Olanzapine-a-2-NB590]	0.96	0.94	1.12	0.82	1.06	1.09	1.00	0.93	–
COc1ccccc1N1CCN(CCCCN2C(=O)c3ccc(CNC(=O)CCOCCNC(=O)c4ccc(CNC(=O)CCc5ccc6n5[B-](F)(F)[N+]5=C(c7ccc[nH]7)C=CC5=C6)cc4)cc3C2=O)CC1 [NAN-190-3-NB590]	1.20	1.15	0.88	0.97	1.02	1.10	1.03	1.38	–
CC(C)N(CC[C@H](c1ccccc1)c1cc(CCNC(=O)CCOCCOCCOCCOCCNC(=O)CCc2ccc3n2[B-](F)(F)[N+]2=C(c4ccc[nH]4)C=CC2=C3)ccc1O)C(C)C [Tolterodine-2-NB590]	0.95	0.79	0.73	0.83	0.95	1.08	0.95	0.96	–
CN(C)CCC=C1c2ccccc2CCc2ccc(C(=O)NCCNC(=O)CCOCCOCCOCCOCCNC(=O)CCc3ccc4n3[B-](F)(F)[N+]3=C(c5ccc[nH]5)C=CC3=C4)cc21 [Amitriptyline-b-2-NB590]	1.02	1.04	–	–	–	–	–	–	NanoBRET Fold Response ([2]; tracer at 1μM): 0.97; NanoBRET Fold Response [3, 5]: 1.01; NanoBRET Fold Response ([3]; tracer at 1μM): 0.97; NanoBRET Fold Response [4, 5]: 1.12; NanoBRET Fold Response ([4]; tracer at 1μM, listed as amitriptyline-b-2-NB590): 1.19
O=C(CCOCCOCCOCCOCCNC(=O)CCc1ccc2n1[B-](F)(F)[N+]1=C(c3ccc[nH]3)C=CC1=C2)NCCCN1CCN(C2=Nc3ccccc3Oc3ccc(Cl)cc32)CC1 [Loxapine-a-2-NB590]	0.44	1.04	0.98	1.15	1.01	0.98	0.98	0.89	–
CN(C)CCC=C1c2ccccc2CCc2ccc(C(=O)NCCNC(=O)CCOCCOCCOCCOCCNC(=O)CCc3ccc4n3[B-](F)(F)[N+]3=C(c5ccc[nH]5)C=CC3=C4)cc21 [Amitriptyline-a-2-NB590]	–	–	–	–	–	–	–	–	NanoBRET Fold Response ([3]; tracer at 0.1μM): 1.03; NanoBRET Fold Response ([3]; tracer at 1μM): 1.01; NanoBRET Fold Response ([4]; tracer at 0.1μM): 1.01; NanoBRET Fold Response ([4]; tracer at 1μM): 1.01
O=C(CCc1ccc2n1[B-](F)(F)[N+]1=C(c3ccc[nH]3)C=CC1=C2)NCCOCCOCCNC(=O)OCCOCCN1CCN(C2=Nc3ccccc3Sc3ccccc32)CC1 [Quetiapine-a-2-NB590]	1.11	0.92	0.94	0.96	1.07	0.84	0.96	0.91	–
COc1ccccc1N1CCN(CCCCN2C(=O)c3ccc(CNC(=O)CCOCCOCCOCCOCCNC(=O)CCc4ccc5n4[B-](F)(F)[N+]4=C(c6ccc[nH]6)C=CC4=C5)cc3C2=O)CC1 [NAN-190-2-NB590]	–	1.00	1.11	1.11	1.03	1.04	1.03	1.08	–
CN(CCC=C1c2ccccc2CCc2ccccc21)C(=O)CCOCCOCCOCCOCCNC(=O)CCc1ccc2n1[B-](F)(F)[N+]1=C(c3ccc[nH]3)C=CC1=C2 [Amitriptyline-e-2-NB590]	–	–	–	–	–	–	–	–	NanoBRET Fold Response ([3]; tracer at 1μM): 1.02; NanoBRET Fold Response ([4]; tracer at 1μM): 0.97

Reference: paper PMC8151276, “An Integrated Approach toward NanoBRET Tracers for Analysis of GPCR Ligand Engagement” (Molecules, 2021)
